Reference: patent publication US20250154611A1, “SYSTEMS AND METHODS TO DETECT STEM CELL STRESS AND USES THEREOF” (Wayne State University, priority 2014, published 2025)
Like-named read-outs stand apart in the source and are kept apart here. Where a SMILES comes first, the peptide text is derived from it. The star is where a group is joined. Cbz = O=C(OCc1ccccc1)*

Tests used:
AKT = molecular target: T1, AKT (Mus musculus, UniProt P31750); test: phospho-AKT western blot in mESCs under 200 mM sorbitol; type: cell-based; conditions: mESCs, 4 hr, 200 mM sorbitol
T1 construct: endogenous in cells; host or cells: mESC-D3 (ATCC)
T1 sequence (P31750 whole entry): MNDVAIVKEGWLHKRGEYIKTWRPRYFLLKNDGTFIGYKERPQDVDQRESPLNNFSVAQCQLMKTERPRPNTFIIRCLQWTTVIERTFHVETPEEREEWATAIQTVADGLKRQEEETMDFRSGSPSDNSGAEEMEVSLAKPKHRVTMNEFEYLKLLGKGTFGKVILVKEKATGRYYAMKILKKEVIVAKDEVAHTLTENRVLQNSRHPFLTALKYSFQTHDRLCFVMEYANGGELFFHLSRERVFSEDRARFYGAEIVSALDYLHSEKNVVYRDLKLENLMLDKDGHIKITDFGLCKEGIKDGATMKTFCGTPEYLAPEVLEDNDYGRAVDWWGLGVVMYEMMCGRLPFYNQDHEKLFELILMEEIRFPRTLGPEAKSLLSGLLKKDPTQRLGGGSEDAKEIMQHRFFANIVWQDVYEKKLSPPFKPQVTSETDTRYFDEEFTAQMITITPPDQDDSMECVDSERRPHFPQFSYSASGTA
Method: (§1) FIG. 14. […] Blots are representative of triplicate experiments. Phospho-proteins and their loading controls are grouped between black lines.
(§2) FIG. 15. […] Blots are representative of triplicate experiments.
(§3) Hyperosmotic activation of signaling enzymes. […] Zhong, 2010; Xie, 2011. […] To determine the kinetics of activation of these five kinases in the described system, mESCs were treated with 200 mM sorbitol for 1 hr. Expression levels of the activated (i.e., phosphorylated) enzymes were assayed by western blot analysis (FIG. 14), including phospho-p38MAPK, phospho-JNK, phospho-MEK1/2, and phospho-AKT (the downstream effector of PI3K signaling).
(§4) Efficacy of enzyme inhibitors.

[1] = tested on: Oct4, Nanog, and Rex1 protein in mESCs; test: Proteasome inhibitor effects on Oct4, Nanog, and Rex1 during sorbitol stimulation of mESCs; type: cell-based, mouse; conditions: 4 hr; for stress-induced loss of Oct4, Nanog, and Rex1: 200 mM sorbitol
Method: FIG. 17. MG132 proteasome inhibitor effects on Oct4, Nanog, and Rex1 during sorbitol stimulation of mESCs. mESCs were treated for 4 hr with 0 or 200 mM sorbitol±10 μM MG132 and then lysed.
FIGS. 18A-18D. Lactacystin effects on Oct4, Nanog, Rex1 during sorbitol stimulation of mESCs. mESCs were treated for 4 hr±200 mM sorbitol±25, 50 μM lactacystin, then photographed before lysing. […] ANOVA+Student-Newman-Keuls post hoc tests, Oct4 p=0.000; Nanog p=0.035; Rex1 p=0.11. FIG. 18D) mESCs were stressed with or without lactacystin and micrographs were taken at 100×. Scale bar=50 μm.
Hyperosmotic-stress-induced loss of potency TFs due to proteasomal degradation. To determine the mechanism of TF protein loss during stress, mESCs were treated with one of two proteasome inhibitors, MG132 (FIG. 17) and lactacystin (FIGS. 18A-18D). […] Oct4 loss was reversed by 75%, Nanog by 93%, and Rex1 by 310% in 4 hr of proteasome inhibition by MG132.

[2] = tested on: mitochondrial membrane potential (ΔΨm)
Method: Mitochondrial staining by MitoTracker dye. TSC were cultured at different O2 levels at least 24 hr stained with DAPI (D21490, Invitrogen) alone or with either MitoTracker Red FM (Invitrogen), TMRM (T668), or JC-1 (T3168, Invitrogen) alone or with the uncoupler FCCP (Sigma), and analyzed under a DM-IRE2 fluorescence microscope (Leica, Germany) using Simple PCI image acquisition software (Hamamatsu, Sewickley, PA).
In more detail, TSC were cultured on coverslips in 12-well plates at different O2 levels either with or without FGF4, for 48 hr. Before experiments were conducted at low O2 tension, TSC were adapted in a hypoxia chamber (Billups-Rothenberg, CA) at the given O2 level described above for at least 24 hr. Nuclear dye 2.5 μg/ml DAPI (D21490, Invitrogen) was applied as a counterstain 1 hr before TSC were incubated alone with either 50 nM MitoTracker Red FM (M22425m, Invitrogen) for 30 min, 20 nM TMRM (T668) for 30 min, or 3.25 nM JC-1 (T3168, Invitrogen) for 45 min, or in combination with the uncoupler FCCP (1 nM, Sigma, C2920). After staining, the TSC were washed with PBS 2 times and immediately analyzed under a DM-IRE2 fluorescence microscope (Leica, Germany) using Simple PCI image acquisition software (Hamamatsu, Sewickley, PA).
The roles of FGF4 and O2 on Δψm associated with ATP production was determined. […]

ERK1/2 = test: phospho-ERK1/2 western blot in mESCs under 200 mM sorbitol
Method: Cells were lysed and proteins were fractionated using SDS-PAGE, blotted, and probed for phospho-p38 (Thr180/Tyr182), phospho-JNK (Thr183/Tyr185), phospho-ERK1/2 (Thr202/Tyr204), or phospho-AKT (Ser473). Blots are representative of triplicate experiments.
Western blot analysis. Sodium dodecyl sulfate-polyacrylamide gel electrophoresis and western immunoblot analysis of mESC lysates were performed as previously described. […] Cells were harvested with cold lysis buffer (Cell Signaling) and protein was quantified by BCA assay (Pierce, Rockford, IL). Ten to twenty micrograms of aliquots were fractionated on 10% polyacrylamide precast gels (Bio-Rad, Hercules, CA), transferred to nitrocellulose membranes (Amersham Biosciences, Aylesbury, UK), probed overnight with primary antibodies, and developed as previously described. […] Protein bands were visualized using the ECL Advance Western Blotting Detection Kit (GE Healthcare, Waukesha, WI), blot was scanned to obtain an electronic image, and intensity of protein bands was quantified using Image J analysis software (rsbweb.nih.gov) and normalized to amido black staining. […] Data are expressed as the change in expression relative to no treatment at time zero.

[3] = tested on: Oct4, Nanog, and Rex1 expression in mESC; test: TF expression levels during hyperosmotic stress +/- enzyme inhibition in mESC monolayer culture (western blot)
Method: Histograms show relative expression of each protein when normalized to amido black expression. Error flags represent standard error of the mean (n≥3). “*” denotes significant difference from unstressed mESCs. “a” indicates significant difference from stress-only time point. ANOVA and Student-Newman-Keuls post hoc tests (P<0.05).
(FIG. 20A) mESCs were incubated±200 mM sorbitol for 0-24 hr and ±p38 inhibitor SB202190 (10 μM). mESCs were lysed, and proteins were fractionated using SDS-PAGE, blotted, and probed for Oct4 or Nanog. (FIG. 20B) Phase micrographs of mESCs following 24 hr of culture in the presence/absence of stress and p38MAPK inhibitor, SB202190. Scale bars=50 μm. (FIG. 20C) mESCs were incubated±200 mM sorbitol for 0-24 hr±either U0126 or LY294002 (25 μM). mESCs were lysed and proteins were fractionated using SDS-PAGE, blotted, and probed for Oct4 or Nanog. Histograms show relative expression of each protein when normalized to amido black expression. Error flags represent standard error of the mean (n≥3). “*” denotes significant difference from unstressed mESCs. “a” indicates significant difference from stress-only time point. ANOVA and Student-Newman-Keuls post hoc tests (P<0.05).
(FIG. 21A) mESCs were incubated±200 mM sorbitol for 0-24 hr±(A) p38MAPK inhibitor SB202190 (10 μM) or PI3K inhibitor LY294002 (25 μM); or JNK inhibitor L-JNKi-1 (2 μM). mESCs were lysed, and proteins were fractionated using SDS-PAGE, blotted, and probed for Rex1. Histograms show relative expression of each protein when normalized to amido black expression. Error flags represent standard error of the mean (n≥3). “*” denotes significant difference from unstressed mESCs. “a” indicates significant difference from stress-only time point. ANOVA and Student-Newman-Keuls post hoc tests (P<0.05). (FIG. 21B) To test the reversibility of the Rex1 loss during sorbitol stress, mESCs were incubated−200 mM sorbitol for 0-4 hr and then sorbitol was removed from some dishes for the remaining 20 hr (lane 5). Histogram is representative of two independent experiments.
Cell culture and stimulation. mESC-D3 cells (ATCC, Manassas, VA) were cultured in the absence of feeder cells in Dulbecco's modified Eagle's medium (Gibco, Grand Island, NY) supplemented with 15% mESC-screened fetal bovine serum (HyClone, Logan, UT), 2 mM L-glutamine, 1 mM sodium pyruvate, 1 mM nonessential amino acids, 0.1 mM 2-mercaptoethanol (Sigma), and 1,000 U/mL murine leukemia inhibitory factor (LIF; Millipore, Temecula, CA) on 0.1% gelatin-coated dishes at 37° C. in humidified air with 5% CO2. […] Osmolality was determined by freezing point depression using Advanced Instruments Wide Range Osmometer 3W2 (Advanced Instruments, Norwood, MA).
Enzyme inhibition. Enzyme inhibitors were chosen according to the specificity reported in the kinase inhibitor literature. […] Inhibitor concentrations were determined following dose response experiments for each inhibitor based on the range of concentrations determined from the mESC and kinase inhibitor literature.

[4] = tested on: Oct4, Nanog, and Rex1 expression in mESC; test: Inhibitor only effects on Oct4, Nanog, and Rex1 expression (western blot); type: cell-based, mouse
[5] = tested on: Trophoblast stem cells (TSCs); test: qPCR of lineage and multipotency markers in TSCs with or without SAPK inhibitors at 20, 2 or 0.5% O2; type: cell-based, mouse; conditions: TSCs + FGF4, 0.5-20% O2
Method: FIGS. 1A-1C. SAPK mediates decreased Gcm1 and Tpbpa and increased Hand1 at all O2 levels. There are greater effects as O2 deviates from the stemness optimum of 2% O2. Trophoblast stem cells (TSCs) were passaged and cultured at 20, 2, or 0.5% O2 overnight. FGF4 was replenished the next day at time zero, and SAPK inhibitor SP600125 (10 μm or 50 μM) was co-incubated with TSCs for 2 days at the indicated O2 levels±SP600125. Markers were quantitated using qPCR. (FIG. 1B) is a graph derived from data in (FIG. 1A), where the highest inhibited group was subtracted from the uninhibited group at each O2 level (the subtracted difference is shown as a color inset in the histogram bars of highest expression of each marker). […]
FIG. 2. […] RNA was isolated and quantitated using qPCR.
Cell lines and culture conditions. […] Quantitative removal of gas phase O2 requires 30 min in anaerobic bags, i.e., there was only a minimal period when 20% O2 was ambient to media that was pre-equilibrated under 0, 0.5, or 2% O2. […]
RNA isolation and quantitative reverse transcription-PCR (qRT-PCR). […] Briefly, DNase-treated total RNA was isolated following cDNA preparation using QuantiTect Reverse Transcription Kit […] (Qiagen). […]

TSCs = type: cell-based, mouse; conditions: 7 days
Method: (FIG. 10A) TSCs were incubated for 7 days±FGF4 at 20%, 2%, or 0.5% O2 with the mitochondrial activator DCA. TSCs were cultured for 7 days at 20% O2,±FGF4, and with mitochondrial inhibitors antimycin A or cyanide (FIG. 10B). The cells were then lysed and assayed by qPCR for the relative levels of 5 terminal differentiation markers PL1, PL2, Plf, CtsQ, and synTa. The experiment was repeated 3 times and bars show the average±s.e.m., (a) indicates no significant difference and (b) indicates a significant difference (p<0.05) between TSCs with FGF4 removed without or with mitochondrial agonist or antagonist. Where changes in markers are significant (b), the increase or decrease due to mitochondrial agonist or antagonist is shown above the histogram bar.
RNA isolation and quantitative reverse transcription-PCR (qRT-PCR). […] Briefly, DNase-treated total RNA was isolated following cDNA preparation using QuantiTect Reverse Transcription Kit iScript (Qiagen). Assays were performed using Fast SYBR Green on a System 7500 instrument (Applied Biosystems), and a one-step program for 40 cycles. Each experiment was carried out in triplicate, and all three genes for TSC multipotency were normalized against 18S rRNA.
To test the necessity and sufficiency of mitochondrial function for TSC differentiation, 2 mitochondrial inhibitors and an agonist were used. The mitochondrial activator dichloroacetate (DCA) was tested at 0.5%-20% O2 (FIG. 10A).
Cyanide and antimycin A inhibit COX (part of mitochondrial complex IV) and complex III, respectively, and were used to inhibit the ETC and thus the generation of Δψm for 7 days of culture at optimal differentiation conditions (FIG. 10B).

p38MAPK = p38MAPK (Mus musculus, UniProt P47811); test: phospho-p38 western blot in mESCs under 200 mM sorbitol; type: cell-based
Sequence of p38MAPK (P47811 whole entry): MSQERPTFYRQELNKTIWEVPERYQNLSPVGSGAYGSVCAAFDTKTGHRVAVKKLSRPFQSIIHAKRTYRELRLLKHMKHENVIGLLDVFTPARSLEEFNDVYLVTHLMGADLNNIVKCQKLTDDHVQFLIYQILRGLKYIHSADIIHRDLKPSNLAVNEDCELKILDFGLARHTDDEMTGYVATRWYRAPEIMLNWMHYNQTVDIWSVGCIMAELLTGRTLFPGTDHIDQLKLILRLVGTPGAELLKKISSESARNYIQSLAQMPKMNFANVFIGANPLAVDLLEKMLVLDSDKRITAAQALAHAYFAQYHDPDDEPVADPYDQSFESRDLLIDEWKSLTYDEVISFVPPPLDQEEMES
Method: as §1, §2, §3, §4

[6] = 4 hr, 200 mM sorbitol + PD98059
[7] = 20% O2, FGF4 removed, sublethal concentration

Q: For `O=c1cc(N2CCOCC2)oc2c(-c3ccccc3)cccc12` [LY294002], which “inhibition of AKT activation (average)” value (AKT) is on record?
A: Its value is 88%.

Q: With `CC(=O)N[C@@H](CSC(=O)[C@]1([C@@H](O)C(C)C)NC(=O)[C@H](C)[C@@H]1O)C(=O)O` [lactacystin] as the compound, how does the “stress-induced loss of Oct4, Nanog, and Rex1” value [1] read?
A: The value was “prevented”.

Q: `N#CC(C#N)=NNc1ccc(OC(F)(F)F)cc1` [FCCP, Carbonyl cyanide 4-(trifluoromethoxy)phenylhydrazone] was tested. Which JC1 stain fluorescence [2] did it give?
A: The JC1 stain fluorescence was “no fluorescence”.

Q: What about the “effect on Δψm” value [2] of the same compound?
A: The value was “completely depolarizes”.

Q: How did the “inhibition of ERK1/2 activation (average)” value (ERK1/2; mESCs, 4 hr, 200 mM sorbitol) turn out when `COc1cccc(-c2cc(=O)c3ccccc3o2)c1N` [PD98059] was run?
A: Its value is 30%.

Q: What about the “Nanog expression relative to unstressed level” value [3, 6] of the same compound?
A: The value was 2.5 times.

Q: And the “expression of Oct4 and Rex1” value [3, 6]?
A: Its value is “remained at the unstressed baseline”.

Q: And the Oct4 recovery ([3]; 24 hr, 200 mM sorbitol + inhibitor)?
A: The Oct4 recovery was “did not prevent”.

Q: What about the “Nanog protein expression, inhibitor only” value ([4]; 24 hr inhibitor only, vs 24 hr no inhibitor, AKTi 10, LY294002 10, L-JNKi-1 2, SB202190 10, U0126 40, PD98059 20 μM) of the same compound?
A: The value was “*1.54 ± 0.10%”.

Q: With `N#CC(=C(/N)Sc1ccccc1N)/C(C#N)=C(\N)Sc1ccccc1N` [U0126] as the compound, how does the “inhibition of ERK1/2 activation (average)” value (ERK1/2) read?
A: The value was 87%.

Q: What about the “Oct4 or Nanog loss during stress” value [3] of the same compound?
A: Its value is “did not prevent”.

Q: And the Oct4 recovery [3]?
A: Its Oct4 recovery is “prevented”.

Q: What about the Rex1 expression [3] of the same compound?
A: Its Rex1 expression is “remained at unstressed levels”.

Q: What about the “Nanog protein expression, inhibitor only” value [4] of the same compound?
A: Its value is 0.94 ± 0.15%.

Q: What about the “Oct4 protein expression, inhibitor only” value [4] of the same compound?
A: Its value is 1.16 ± 0.31%.

Q: What about the “Rex1 protein expression, inhibitor only” value [4] of the same compound?
A: The value was 0.72 ± 0.06%.

Q: `Oc1c2ccccc2c2c3c(cccc13)N=N2` [SP600125] was tested. Which “multipotency factors Cdx2, Id2, Errβ mRNA” value [5] did it give?
A: Its value is “no effect”.

Q: Which “Ctsq mRNA inhibited” value (TSCs; [7]) does the source give for antimycin A here?
A: Its value is 81%.

Q: What about the “PL2 mRNA inhibited” value (TSCs; [7]) of the same compound?
A: Its value is 98%.

Q: And the “synTa mRNA inhibited” value (TSCs; [7])?
A: Its value is 42%.

Q: For `O=C(O)C(Cl)Cl` [DCA, dichloroacetate], which “PL2 mRNA increase” value (TSCs; 2% O2) is on record?
A: Its value is 2 fold.

Q: What about the “synTa mRNA increase” value (TSCs; 2% O2) of the same compound?
A: Its value is 2 fold.

Q: Which “reversal of stress-induced Nanog loss” value ([1]; 10 μM MG132, 200 mM sorbitol) does the source give for `CC(C)C[C@@H](C=O)NC(=O)[C@H](CC(C)C)NC(=O)[C@H](CC(C)C)NC(=O)OCc1ccccc1` [MG132] (Cbz-Leu-Leu-Leu-aldehyde) here?
A: Its value is 93%.

Q: And the “reversal of stress-induced Oct4 loss” value ([1]; 10 μM MG132, 200 mM sorbitol)?
A: Its value is 75%.

Q: What about the “reversal of stress-induced Rex1 loss” value ([1]; 10 μM MG132, 200 mM sorbitol) of the same compound?
A: The value was 310%.

Q: And the “stress-induced loss of Oct4, Nanog, and Rex1” value [1]?
A: Its value is “prevented”.

Q: Which “inhibition of p38MAPK activation (average)” value (p38MAPK) does the source give for `Oc1ccc(-c2nc(-c3ccncc3)c(-c3ccc(F)cc3)[nH]2)cc1` [SB202190] here?
A: Its value is 60%.

Q: What about the Nanog expression ([3]; 24 hr ongoing stress, 200 mM sorbitol + SB202190) of the same compound?
A: The Nanog expression was 10%.

Q: What about the Oct4 expression ([3]; 24 hr, 200 mM sorbitol + SB202190, did not recover from 4-h nadir) of the same compound?
A: Its Oct4 expression is 50 % of unstressed levels.
